Measured values as given in ChEMBL document CHEMBL2384907, “Identification of substituted pyrimido[5,4-b]indoles as selective Toll-like receptor 4 ligands” (J Med Chem, 2013).
Active and inactive are the calls of the source.

Key:
Assay type in all cases: cell-based
[1] = biological target: T1, Toll-like receptor 9 (Homo sapiens) (UniProt Q9NR96); experiment: Activation of human TLR9 transfected in HEK293 cells at 10 uM after 20 to 24 hrs by SEAP assay
T1 sequence (whole entry): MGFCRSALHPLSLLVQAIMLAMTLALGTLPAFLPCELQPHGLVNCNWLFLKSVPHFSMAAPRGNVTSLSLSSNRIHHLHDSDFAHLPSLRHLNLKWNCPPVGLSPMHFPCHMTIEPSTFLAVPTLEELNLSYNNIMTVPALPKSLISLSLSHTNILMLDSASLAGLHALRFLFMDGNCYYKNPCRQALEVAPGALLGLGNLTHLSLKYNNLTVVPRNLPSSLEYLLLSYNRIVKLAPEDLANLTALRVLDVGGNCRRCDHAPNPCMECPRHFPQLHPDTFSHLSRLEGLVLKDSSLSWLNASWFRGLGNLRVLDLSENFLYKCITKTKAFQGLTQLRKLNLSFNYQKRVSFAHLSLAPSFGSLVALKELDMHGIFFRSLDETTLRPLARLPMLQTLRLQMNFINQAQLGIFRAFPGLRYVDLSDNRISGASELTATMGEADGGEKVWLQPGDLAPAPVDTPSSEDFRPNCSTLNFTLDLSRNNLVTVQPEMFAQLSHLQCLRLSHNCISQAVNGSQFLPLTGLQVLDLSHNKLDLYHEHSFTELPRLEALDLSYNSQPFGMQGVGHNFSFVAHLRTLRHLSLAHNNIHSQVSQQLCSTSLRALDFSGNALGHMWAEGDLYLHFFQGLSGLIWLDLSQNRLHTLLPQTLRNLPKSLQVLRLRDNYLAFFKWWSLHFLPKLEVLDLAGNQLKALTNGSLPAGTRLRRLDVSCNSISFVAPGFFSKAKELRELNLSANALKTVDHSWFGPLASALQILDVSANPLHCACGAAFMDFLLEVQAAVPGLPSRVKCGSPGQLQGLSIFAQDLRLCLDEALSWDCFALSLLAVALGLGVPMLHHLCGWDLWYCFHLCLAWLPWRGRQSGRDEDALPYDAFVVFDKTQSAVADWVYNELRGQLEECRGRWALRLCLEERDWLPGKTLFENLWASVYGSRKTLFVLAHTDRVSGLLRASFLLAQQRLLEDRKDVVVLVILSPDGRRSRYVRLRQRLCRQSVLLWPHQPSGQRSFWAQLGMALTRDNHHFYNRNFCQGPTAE

[2] = biological target: T2, Toll-like receptor 7 (Homo sapiens) (UniProt Q9NYK1); experiment: Activation of human TLR7 transfected in HEK293 cells at 10 uM after 20 to 24 hrs by SEAP assay
T2 sequence (whole entry): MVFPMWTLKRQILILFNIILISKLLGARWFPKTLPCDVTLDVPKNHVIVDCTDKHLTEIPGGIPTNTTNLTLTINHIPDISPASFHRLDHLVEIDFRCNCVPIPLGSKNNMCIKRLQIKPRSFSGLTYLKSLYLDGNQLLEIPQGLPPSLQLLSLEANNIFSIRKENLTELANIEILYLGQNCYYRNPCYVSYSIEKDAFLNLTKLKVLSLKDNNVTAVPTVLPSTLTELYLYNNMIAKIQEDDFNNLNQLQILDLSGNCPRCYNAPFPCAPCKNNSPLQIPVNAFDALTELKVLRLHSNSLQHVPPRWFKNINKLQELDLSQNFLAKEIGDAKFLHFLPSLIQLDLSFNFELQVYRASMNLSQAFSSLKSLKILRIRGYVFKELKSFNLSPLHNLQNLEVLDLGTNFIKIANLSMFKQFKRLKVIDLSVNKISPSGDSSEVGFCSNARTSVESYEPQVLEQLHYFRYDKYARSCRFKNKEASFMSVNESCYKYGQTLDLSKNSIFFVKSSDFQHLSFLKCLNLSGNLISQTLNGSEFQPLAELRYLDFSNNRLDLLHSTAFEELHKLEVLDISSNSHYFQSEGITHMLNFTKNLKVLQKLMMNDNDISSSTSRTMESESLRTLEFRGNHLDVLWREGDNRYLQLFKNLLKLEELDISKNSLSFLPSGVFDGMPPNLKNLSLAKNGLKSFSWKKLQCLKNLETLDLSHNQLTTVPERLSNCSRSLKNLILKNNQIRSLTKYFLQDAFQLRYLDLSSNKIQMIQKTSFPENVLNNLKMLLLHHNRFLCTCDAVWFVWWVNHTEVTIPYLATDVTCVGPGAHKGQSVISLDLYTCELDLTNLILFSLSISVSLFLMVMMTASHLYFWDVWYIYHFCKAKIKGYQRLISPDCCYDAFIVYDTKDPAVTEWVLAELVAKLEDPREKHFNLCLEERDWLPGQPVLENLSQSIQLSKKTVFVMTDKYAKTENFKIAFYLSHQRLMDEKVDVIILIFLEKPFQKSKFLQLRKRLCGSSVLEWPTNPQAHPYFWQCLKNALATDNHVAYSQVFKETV

[3] = biological target: Toll-like receptor 3 (Homo sapiens) (UniProt O15455); experiment: Activation of human TLR3 transfected in HEK293 cells at 10 uM after 20 to 24 hrs by SEAP assay

Measured: Activity

Toll-like receptor 3 (Homo sapiens), sequence (O15455 whole entry): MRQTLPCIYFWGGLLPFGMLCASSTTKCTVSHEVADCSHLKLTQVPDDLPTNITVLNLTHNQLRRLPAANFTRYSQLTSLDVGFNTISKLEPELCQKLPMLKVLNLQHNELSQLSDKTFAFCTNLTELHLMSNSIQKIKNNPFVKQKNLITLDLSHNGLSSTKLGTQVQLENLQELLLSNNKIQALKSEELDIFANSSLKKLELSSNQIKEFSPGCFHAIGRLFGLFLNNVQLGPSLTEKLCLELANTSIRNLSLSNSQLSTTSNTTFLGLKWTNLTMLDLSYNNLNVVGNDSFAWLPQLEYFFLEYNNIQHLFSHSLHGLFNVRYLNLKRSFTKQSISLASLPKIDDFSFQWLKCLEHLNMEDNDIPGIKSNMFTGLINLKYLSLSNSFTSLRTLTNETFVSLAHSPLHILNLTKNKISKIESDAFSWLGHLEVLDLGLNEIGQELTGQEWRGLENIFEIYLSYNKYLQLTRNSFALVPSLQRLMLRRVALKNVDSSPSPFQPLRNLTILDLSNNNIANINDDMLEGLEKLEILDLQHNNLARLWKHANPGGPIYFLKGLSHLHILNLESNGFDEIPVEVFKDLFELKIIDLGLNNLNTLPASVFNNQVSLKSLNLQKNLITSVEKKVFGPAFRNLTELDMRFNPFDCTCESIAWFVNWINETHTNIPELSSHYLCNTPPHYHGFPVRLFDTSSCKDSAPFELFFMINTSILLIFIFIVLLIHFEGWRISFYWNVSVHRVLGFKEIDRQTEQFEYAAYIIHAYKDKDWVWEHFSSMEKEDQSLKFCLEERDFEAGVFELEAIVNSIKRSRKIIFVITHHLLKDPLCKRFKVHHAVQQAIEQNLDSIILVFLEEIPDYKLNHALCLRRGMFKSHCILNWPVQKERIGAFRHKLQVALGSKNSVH

O=C(CSc1nc2c([nH]c3ccccc32)c(=O)n1-c1ccccc1)NC1CCCCC1
inactive: all assays above
